Measurements taken from patent US12691112B2, “FGFR tyrosine kinase inhibitors for the treatment of urothelial carcinoma” (Janssen Pharmaceutica NV, priority 2019, dated 2026).
Read-outs that look alike come from different tables or passages of the source.

Test system: subjects with metastatic or surgically unresectable urothelial cancer
Protocol: Study treatment was administered on 28-day cycles. […] Patients were randomized 1:1 to 28-day cycles to the following 2 regimens until a regimen was selected for further study: Regimen 1 (10 mg once daily intermittent (7 days on/7 days); Regimen 2 (6 mg once daily continuous). Randomization was stratified according to performance status (0 to 1 vs. 2), hemoglobin value (<10 vs. ≥10 g per dl), FGFR alteration type (mutation vs. fusion), prior treatment status (chemotherapy-resistant vs. chemotherapy naïve), and disease distribution (presence or absence of visceral [liver, lung, bone]metastases). Starting dose selection was based on phase 1 efficacy and tolerability.
Based on interim analysis and pharmacokinetic-pharmacodynamic modeling of serum phosphate levels, starting dose was increased to 8 mg per day continuous (Regimen 3). Thus, after interim analysis, this became a single-arm study. […] Treatment continued until disease progression or unacceptable adverse event(s) per investigator.
Safety was evaluated based on clinical laboratory tests, physical exams, electrocardiograms, and ophthalmology examinations. Adverse events and abnormalities were assessed by investigator and graded per NCI CTCAE v.4.0
Prophylactic measures were taken to minimize risk of common adverse events related to FGFR inhibition. To reduce risk of hyperphosphatemia, a low-phosphate diet was recommended for all patients (600 to 800 mg of dietary phosphate intake per day). To reduce the risk of skin effects, the application of alcohol-free emollient moisturizing cream and avoidance of unnecessary exposure to sunlight, soap, perfumed products, and hot baths was recommended. Patients were asked to keep their fingers and toes clean and nails trimmed to reduce risk of nail effects.
Additional ophthalmology examinations were performed if clinically indicated.

`COc1cc(OC)cc(N(CCNC(C)C)c2ccc3ncc(-c4cnn(C)c4)nc3c2)c1` [erdafitinib, N-(3,5-dimethoxy-phenyl)-N′-(1-methylethyl)-N-[3-(1-methyl-1H-pyrazol-4-yl)quinoxalin-6-yl]ethane-1,2-diamine] was tested, and the “Serious treatment-emergent: Dyspnea” value (6 mg continuous, n = 78) was 1 (1) no. (%), the “Serious treatment-emergent: Eye disorders” value (6 mg continuous, n = 78) was 3 (4) no. (%) and the “Serious treatment-emergent: Gastrointestinal disorders” value (6 mg continuous, n = 78) was 8 (10) no. (%). The “Serious treatment-emergent: Infections and infestations” value (6 mg continuous, n = 78) was 13 (17) no. (%), the “Serious treatment-emergent: Metabolism and nutrition disorders” value (6 mg continuous, n = 78) was 3 (4) no. (%) and the “Serious treatment-emergent: Nervous system disorders” value (6 mg continuous, n = 78) was 5 (6) no. (%). For the same molecule, the “Serious treatment-emergent: Renal and urinary disorders” value (6 mg continuous, n = 78) was 5 (6) no. (%), the “Serious treatment-emergent: Respiratory, thoracic, mediastinal disorders” value (6 mg continuous, n = 78) was 3 (4) no. (%) and the “Serious treatment-emergent: Urinary tract infection” value (6 mg continuous, n = 78) was 4 (5) no. (%). For the same molecule, the “Serious treatment-emergent: Urosepsis” value (6 mg continuous, n = 78) was 3 (4) no. (%), the “Total number of patients with serious treatment-emergent adverse events” value (6 mg continuous, n = 78) was 39 (50) no. (%) and the “Serious treatment-emergent: Dyspnea” value (8 mg continuous, n = 99) was 2 (2) no. (%). The “Serious treatment-emergent: Eye disorders” value (8 mg continuous, n = 99) was 9 (9) no. (%), the “Serious treatment-emergent: Gastrointestinal disorders” value (8 mg continuous, n = 99) was 8 (8) no. (%) and the “Serious treatment-emergent: Infections and infestations” value (8 mg continuous, n = 99) was 9 (9) no. (%). For the same molecule, the “Serious treatment-emergent: Metabolism and nutrition disorders” value (8 mg continuous, n = 99) was 2 (2) no. (%), the “Serious treatment-emergent: Nervous system disorders” value (8 mg continuous, n = 99) was 1 (1) no. (%) and the “Serious treatment-emergent: Renal and urinary disorders” value (8 mg continuous, n = 99) was 10 (10) no. (%). For the same molecule, the “Serious treatment-emergent: Respiratory, thoracic, mediastinal disorders” value (8 mg continuous, n = 99) was 3 (3) no. (%), the “Serious treatment-emergent: Urinary tract infection” value (8 mg continuous, n = 99) was 3 (3) no. (%) and the “Serious treatment-emergent: Urosepsis” value (8 mg continuous, n = 99) was 2 (2) no. (%). The “Total number of patients with serious treatment-emergent adverse events” value (8 mg continuous, n = 99) was 39 (39) no. (%), the “Treatment-related Alanine aminotransferase increased, any grade” value (8 mg continuous, n = 99) was 12 (12) no. (%) and the “Treatment-related Alanine aminotransferase increased, grade 1” value (8 mg continuous, n = 99) was 9 (9) no. (%). The “Treatment-related Alanine aminotransferase increased, grade 2” value (8 mg continuous, n = 99) was 2 (2) no. (%), the “Treatment-related Alanine aminotransferase increased, grade 3” value (8 mg continuous, n = 99) was 1 (1) no. (%) and the “Treatment-related Alopecia, any grade” value (8 mg continuous, n = 99) was 27 (27) no. (%). For the same molecule, the “Treatment-related Alopecia, grade 1” value (8 mg continuous, n = 99) was 21 (21) no. (%), the “Treatment-related Alopecia, grade 2” value (8 mg continuous, n = 99) was 6 (6) no. (%) and the “Treatment-related Alopecia, grade 3” value (8 mg continuous, n = 99) was 0 no. (%). For the same molecule, the “Treatment-related Asthenia, any grade” value (8 mg continuous, n = 99) was 13 (13) no. (%), the “Treatment-related Asthenia, grade 1” value (8 mg continuous, n = 99) was 2 (2) no. (%) and the “Treatment-related Asthenia, grade 2” value (8 mg continuous, n = 99) was 9 (9) no. (%). The “Treatment-related Asthenia, grade 3” value (8 mg continuous, n = 99) was 2 (2) no. (%), the “Treatment-related Decreased appetite, any grade” value (8 mg continuous, n = 99) was 25 (25) no. (%) and the “Treatment-related Decreased appetite, grade 1” value (8 mg continuous, n = 99) was 11 (11) no. (%). For the same molecule, the “Treatment-related Decreased appetite, grade 2” value (8 mg continuous, n = 99) was 14 (14) no. (%), the “Treatment-related Decreased appetite, grade 3” value (8 mg continuous, n = 99) was 0 no. (%) and the “Treatment-related Diarrhea, any grade” value (8 mg continuous, n = 99) was 37 (37) no. (%). The “Treatment-related Diarrhea, grade 1” value (8 mg continuous, n = 99) was 21 (21) no. (%), the “Treatment-related Diarrhea, grade 2” value (8 mg continuous, n = 99) was 12 (12) no. (%) and the “Treatment-related Diarrhea, grade 3” value (8 mg continuous, n = 99) was 4 (4) no. (%). For the same molecule, the “Treatment-related Dry eye, any grade” value (8 mg continuous, n = 99) was 19 (19) no. (%), the “Treatment-related Dry eye, grade 1” value (8 mg continuous, n = 99) was 14 (14) no. (%) and the “Treatment-related Dry eye, grade 2” value (8 mg continuous, n = 99) was 4 (4) no. (%). For the same molecule, the “Treatment-related Dry eye, grade 3” value (8 mg continuous, n = 99) was 1 (1) no. (%), the “Treatment-related Dry mouth, any grade” value (8 mg continuous, n = 99) was 43 (43) no. (%) and the “Treatment-related Dry mouth, grade 1” value (8 mg continuous, n = 99) was 32 (32) no. (%). For the same molecule, the “Treatment-related Dry mouth, grade 2” value (8 mg continuous, n = 99) was 11 (11) no. (%), the “Treatment-related Dry mouth, grade 3” value (8 mg continuous, n = 99) was 0 no. (%) and the “Treatment-related Dry skin, any grade” value (8 mg continuous, n = 99) was 32 (32) no. (%). The “Treatment-related Dry skin, grade 1” value (8 mg continuous, n = 99) was 24 (24) no. (%), the “Treatment-related Dry skin, grade 2” value (8 mg continuous, n = 99) was 8 (8) no. (%) and the “Treatment-related Dry skin, grade 3” value (8 mg continuous, n = 99) was 0 no. (%). For the same molecule, the “Treatment-related Dysgeusia, any grade” value (8 mg continuous, n = 99) was 35 (35) no. (%), the “Treatment-related Dysgeusia, grade 1” value (8 mg continuous, n = 99) was 22 (22) no. (%) and the “Treatment-related Dysgeusia, grade 2” value (8 mg continuous, n = 99) was 12 (12) no. (%). The “Treatment-related Dysgeusia, grade 3” value (8 mg continuous, n = 99) was 1 (1) no. (%), the “Treatment-related Fatigue, any grade” value (8 mg continuous, n = 99) was 21 (21) no. (%) and the “Treatment-related Fatigue, grade 1” value (8 mg continuous, n = 99) was 8 (8) no. (%). The “Treatment-related Fatigue, grade 2” value (8 mg continuous, n = 99) was 11 (11) no. (%), the “Treatment-related Fatigue, grade 3” value (8 mg continuous, n = 99) was 2 (2) no. (%) and the “Treatment-related Hand-foot syndrome, any grade” value (8 mg continuous, n = 99) was 22 (22) no. (%). The “Treatment-related Hand-foot syndrome, grade 1” value (8 mg continuous, n = 99) was 5 (5) no. (%), the “Treatment-related Hand-foot syndrome, grade 2” value (8 mg continuous, n = 99) was 12 (12) no. (%) and the “Treatment-related Hand-foot syndrome, grade 3” value (8 mg continuous, n = 99) was 5 (5) no. (%). The “Treatment-related Hyperphosphatemia, any grade” value (8 mg continuous, n = 99) was 72 (73) no. (%), the “Treatment-related Hyperphosphatemia, grade 1” value (8 mg continuous, n = 99) was 49 (50) no. (%) and the “Treatment-related Hyperphosphatemia, grade 2” value (8 mg continuous, n = 99) was 21 (21) no. (%). For the same molecule, the “Treatment-related Hyperphosphatemia, grade 3” value (8 mg continuous, n = 99) was 2 (2) no. (%), the “Treatment-related Lacrimation increased, any grade” value (8 mg continuous, n = 99) was 11 (11) no. (%) and the “Treatment-related Lacrimation increased, grade 1” value (8 mg continuous, n = 99) was 8 (8) no. (%). For the same molecule, the “Treatment-related Lacrimation increased, grade 2” value (8 mg continuous, n = 99) was 3 (3) no. (%), the “Treatment-related Lacrimation increased, grade 3” value (8 mg continuous, n = 99) was 0 no. (%) and the “Treatment-related Nail dystrophy, any grade” value (8 mg continuous, n = 99) was 16 (16) no. (%). For the same molecule, the “Treatment-related Nail dystrophy, grade 1” value (8 mg continuous, n = 99) was 5 (5) no. (%), the “Treatment-related Nail dystrophy, grade 2” value (8 mg continuous, n = 99) was 5 (5) no. (%) and the “Treatment-related Nail dystrophy, grade 3” value (8 mg continuous, n = 99) was 6 (6) no. (%). The “Treatment-related Onycholysis, any grade” value (8 mg continuous, n = 99) was 16 (16) no. (%), the “Treatment-related Onycholysis, grade 1” value (8 mg continuous, n = 99) was 4 (4) no. (%) and the “Treatment-related Onycholysis, grade 2” value (8 mg continuous, n = 99) was 10 (10) no. (%). The “Treatment-related Onycholysis, grade 3” value (8 mg continuous, n = 99) was 2 (2) no. (%), the “Treatment-related Paronychia, any grade” value (8 mg continuous, n = 99) was 14 (14) no. (%) and the “Treatment-related Paronychia, grade 1” value (8 mg continuous, n = 99) was 1 (1) no. (%). For the same molecule, the “Treatment-related Paronychia, grade 2” value (8 mg continuous, n = 99) was 10 (10) no. (%).
